Results from patent US10899795B2, “Modified epitopes for boosting CD4+ T-cell responses” (Katholieke Universiteit Leuven, priority 2012, dated 2021).
“Also recorded” adds a separate entry of the source.

How the values were obtained:
[1] = test system: p21-35 (SEQ ID NO:3)-specific CD4+ T cell clone; assay: Proliferation of Der p2 p21-35-specific CD4+ T cell clone with peptide-loaded antigen-presenting cells (3H-thymidine incorporation); assay type: cell-based, BALB/c mice; settings: peptide 0.1 μM loaded on T cell-depleted mitomycin C-treated splenocytes; compared with p21-35 wildtype sequence (SEQ ID NO:3); 48 h + 18 h 3H-thymidine
[2] = test system: B cells expressing the BO2C11 BCR; assay: FACS for BO2C11 BCR on circulating, splenic and bone marrow B cells of immunized mice; assay type: in vivo
Description: A mouse strain was created which expresses the BO2C11 molecule as a B cell receptor. […] Mice were then bled and tested for the presence of antibodies recognizing the peptide of SEQ ID NO:10 and the BO2C11 antibody, as assess by direct binding ELISA. […] Furthermore, the presence of the BO2C11 BCR on circulating, splenic and bone marrow B cells was evaluated by FACS using an anti-human Fc-gamma antibody.

BO2C11 antibody = assay: Direct binding ELISA of antibodies in blood of immunized BO2C11 BCR mice; assay type: in vivo; settings: mice immunized with 50 μg peptide on alum on 4 occasions at 10-day intervals
Description: (§1) A mouse strain was created which expresses the BO2C11 molecule as a B cell receptor. […] Mice were then bled and tested for the presence of antibodies recognizing the peptide of SEQ ID NO:10 and the BO2C11 antibody, as assess by direct binding ELISA.

[3] = as above; assay type: in vivo; settings: mice immunized with 50 μg peptide on alum on 4 occasions at 10-day intervals
Description: as §1

CD4+ T cells = assay: Proliferation of CD4+ T cells stimulated with ALK peptide-loaded dendritic cells (tritiated thymidine incorporation); assay type: cell-based, C57BL/6 mice; settings: four cycles of stimulation with 20 μg peptide; restimulation with 1 μM or 10 μM peptide of SEQ ID NO:14; compared with stimulation by SEQ ID NO:14
G121 TCR = assay: FACS detection of serum antibodies to G121 TCR in immunized mice; assay type: in vivo, BALB/c mice; settings: G121 cells incubated with serum dilution, then FITC-labeled anti-mouse Fcgamma antibody
G121 CD4+ T cell clone = assay: FACS detection of CFSE-labeled G121 CD4+ T cell clone in immunized mice; assay type: in vivo, BALB/c mice; settings: one day after i.v. injection of 200,000 cells per mouse in immunized mice
[4] = test system: macrophages presenting Ag85b derived epitopes; assay type: cell-based, C57BL/6 mice
[5] = test system: ALK-specific CD4+ T cells; assay: Activation of ALK-specific CD4+ T cells
[6] = test system: NPM-ALK tumor cells (R80 NPM-ALK cells, H-2b-restricted); assay: Growth of NPM-ALK tumor in mice preimmunized with peptide on alum; assay type: in vivo, C57BL/6 mice; settings: 50 μg peptide on alum, 4 times at 10-day intervals, before s.c. inoculation of 2×10^6 tumor cells; difference at day 20 p<0.008 (Mann-Whitney U test)

AHGSEPCIIHRGKPF (Der p2 amino acids 21-35 with mutation c21A) [SEQ ID NO:4, p21-35 peptide with cysteine in P(-4) substituted by alanine]
reduction of the proliferative response of the specific T cell clone [1]: 70%

CAVY YCAVPDPDA FDI (CAVYYCAVPDPDAFDI; amino acids 111-125 of VH of human anti-factor VIII antibody BO2C11 preceded by cyteine) [SEQ ID NO:11]
B cells expressing the transgenic BCR in circulation, spleen or bone marrow (FACS, anti-human Fc-gamma antibody) [2]: no B cells expressing the transgenic BCR
antibodies to the BO2C11 antibody (direct binding ELISA) (BO2C11 antibody): High concentrations of antibodies
antibodies to the peptide of SEQ ID 10 (direct binding ELISA) [3]: High concentrations of antibodies

CGG WTGPGAGPR (CGGWTGPGAGPR; amino acids 1544-1555 of ALK protein preceded by cysteine) [SEQ ID NO:15, ALK peptide with a single cysteine added at position 1544]
proliferation rate of CD4+ T cells (incorporation of tritiated thymidine) (CD4+ T cells): significantly increased

CQTA VYFCASSER TGG (CQTAVYFCASSERTGG; amino acids 103-117 of VH of anti-Der p2 CD4+ T-cell clone G121 preceded by cysteine) [SEQ ID NO:13]
antibodies to G121 TCR in serum of immunized mice (FACS) (G121 TCR): contains antibodies to G121 TCR
residual CFSE-labeled G121 cells in peripheral blood or spleen (FACS) (G121 CD4+ T cell clone): no residual G121 cells

CSWE YWGAQLNAM [SEQ ID NO:7]
macrophage lysis (51Cr release) [4]: significant degree of macrophage lysis

YCTQDPDVINTA (ALK-epitope) [SEQ ID NO:5]
activation of ALK-specific (class II-restricted) CD4+ T cells [5]: boost the activation; also recorded: increased activation properties
tumor growth in preimmunized mice versus control group not preimmunized [6]: very much reduced

YWGAQLNAM [SEQ ID NO:6, reference compound]
macrophage lysis (51Cr release) [4]: not
